Among the data in PubChem BioAssay (NCI) are GI50 and TGI values, retold here.

SMILES strings stand for the structures. Several values for one entry are separate records, joined by “and”; a condition that tells them apart may be missing. Identical values can stand only once.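 96-well plates; 48 h exposure; 5 concentrations. Endpoints by linear interpolation between flanking doses. Not reached: highest tested concentration assigned. GI50 marks 50% less growth. The concentration for full growth arrest is given as TGI.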 Bounds are passed on as bounds.

Some test systems named below: ACHN renal; PC-3 prostate; NCI-H23 lung; NCI-H226 lung; MDA-MB-231 breast; 786-0 renal; SN12C renal; HL-60(TB) leukemia; NCI-H460 lung; OVCAR-3 ovarian.
Assay in all cases: DTP human tumour cell line panel, 48 h

For `COC(=O)[C@@H](C)C[C@H](Cc1ccccc1)NC(=O)c1csc([C@@H](C[C@H](C(C)C)N(C)C(=O)[C@@H](NC(=O)[C@H]2CCCCN2C)C2CC2)OC(C)=O)n1`, the 50% growth inhibitory concentration (GI50) in the assay with ACHN renal was 0.00104 µM and 0.00165 µM; in the assay on PC-3 prostate it was 0.000211 µM and 0.00165 µM; in the assay with NCI-H23 lung it was 0.000532 µM and 0.00165 µM; in the assay with NCI-H226 lung, 0.009 µM and 0.00417 µM; in the assay with MDA-MB-231 breast, 0.00143 µM and 0.00165 µM; with 786-0 renal, 0.000456 µM and 0.00165 µM. Besides, the GI50 in the assay on SN12C renal is 0.00115 µM and 0.00165 µM; with HL-60(TB) leukemia, 0.000235 µM and < 0.00165 µM; in the assay on NCI-H460 lung it was 0.000362 µM and 0.00165 µM; in the assay on OVCAR-3 ovarian, 0.0497 nM and < 1.65 nM. Further, the TGI was above 16.5 µM in the assay on ACHN renal; above 16.5 µM in the assay on PC-3 prostate; above 16.5 µM with NCI-H23 lung; 1.18 µM in the assay on NCI-H226 lung; above 16.5 µM with MDA-MB-231 breast; above 16.5 µM with 786-0 renal. Moreover, the TGI in the assay with SN12C renal was above 16.5 µM; in the assay with HL-60(TB) leukemia, 0.000839 µM and < 0.00165 µM; with NCI-H460 lung, above 16.5 µM; with OVCAR-3 ovarian it was 0.00379 µM and < 0.00165 µM.
As for `O=C1C(=O)c2cccnc2-c2ncccc21`, the GI50 is 0.0545 µM in the assay on ACHN renal; 0.208 µM in the assay on PC-3 prostate; 0.319 µM with NCI-H23 lung; 0.696 µM in the assay with NCI-H226 lung; 0.14 µM in the assay with MDA-MB-231 breast; 1.22 µM with 786-0 renal. The GI50 is 0.25 µM in the assay on SN12C renal, 0.18 µM with HL-60(TB) leukemia, 0.0678 µM in the assay on NCI-H460 lung and 193 nM in the assay on OVCAR-3 ovarian. The TGI was found to be 0.318 µM in the assay with ACHN renal; 1.27 µM in the assay with PC-3 prostate; 1.3 µM in the assay on NCI-H23 lung; 2.05 µM in the assay with NCI-H226 lung; 0.503 µM with MDA-MB-231 breast; 2.5 µM with 786-0 renal. Besides, the total growth inhibition concentration (TGI) in the assay with SN12C renal was 0.848 µM; in the assay on HL-60(TB) leukemia it was 0.443 µM; in the assay with NCI-H460 lung it was 0.774 µM; in the assay with OVCAR-3 ovarian it was 0.503 µM.
As for `CCN(CC)c1ccc(C(=O)c2ccc(N(CC)CC)cc2)cc1`, the GI50 is 0.935 µM in the assay with ACHN renal; 0.452 µM in the assay on PC-3 prostate; 0.74 µM in the assay with NCI-H23 lung; 2.54 µM with NCI-H226 lung; 1.23 µM in the assay on MDA-MB-231 breast; 0.668 µM in the assay with 786-0 renal. For the same molecule, the GI50 in the assay with SN12C renal was 0.787 µM; in the assay with HL-60(TB) leukemia, 0.407 µM; in the assay on NCI-H460 lung it was 0.372 µM; in the assay on OVCAR-3 ovarian, 264 nM. Also, the total growth inhibition concentration (TGI) in the assay on ACHN renal was above 100 µM; in the assay with PC-3 prostate, above 100 µM; in the assay on NCI-H23 lung, above 100 µM; in the assay on NCI-H226 lung it was 61.6 µM; in the assay with MDA-MB-231 breast it was 28.2 µM; in the assay on 786-0 renal, 28.3 µM. Moreover, the TGI in the assay with SN12C renal was determined as 35.5 µM; with HL-60(TB) leukemia, 2.5 µM; in the assay on NCI-H460 lung, 1.99 µM; in the assay with OVCAR-3 ovarian, 0.706 µM.
Consider `S=P(N1CC1)(N1CC1)N1CC1`, for which the GI50 with ACHN renal is 3.39 µM; in the assay on PC-3 prostate, 310 µM; with MDA-MB-231 breast, 529 µM; with 786-0 renal, 5.33 µM and 52.4 µM; with HL-60(TB) leukemia, 0.942 µM and 1.95 µM; in the assay on NCI-H460 lung, 0.588 µM. Further, the concentration for total growth inhibition (TGI) in the assay with ACHN renal is 37.3 µM and 335 µM; in the assay on PC-3 prostate, 805 µM and 834 µM; with MDA-MB-231 breast it was 678 µM and 777 µM; with 786-0 renal it was 31.2 µM and 187 µM and 306 µM; in the assay on NCI-H460 lung it was 31.7 µM and 195 µM; in the assay with OVCAR-3 ovarian it was 48.8 µM and 381 µM and 470 µM.
As for `C=C(c1ccccc1)[C@@]1(O)CC[C@@H]1N(CC#N)Cc1ccccc1`, the TGI in the assay with ACHN renal is 41.4 µM; with PC-3 prostate it was 64.3 µM; in the assay with NCI-H23 lung, 68 µM; in the assay on NCI-H226 lung it was above 100 µM; in the assay with MDA-MB-231 breast, 27.5 µM; with 786-0 renal, 35.4 µM. The TGI in the assay with SN12C renal was 46.8 µM; with HL-60(TB) leukemia, above 62.1 µM; in the assay on NCI-H460 lung, above 100 µM; in the assay with OVCAR-3 ovarian, 17.1 µM.
Consider `C=CC(Cl)(CBr)CCC(Br)C(C)(C)Cl` (stereo not given), for which the TGI with ACHN renal was 38.2 µM; with PC-3 prostate, 35 µM; in the assay with NCI-H23 lung, 31.3 µM; in the assay on NCI-H226 lung, above 100 µM; in the assay with MDA-MB-231 breast, 27.6 µM; in the assay on 786-0 renal, 28.1 µM. In addition, the TGI with SN12C renal worked out at 48.4 µM; with HL-60(TB) leukemia, 19.3 µM; in the assay on NCI-H460 lung, 28 µM; in the assay with OVCAR-3 ovarian, 33.2 µM.
Regarding `CC(C)=CC1=C2C3=C(C(=O)C4(O)Oc5c(C)c6c7c(c5OC24C)[C@@H](C)CC[C@@H]7[C@@H](C)C[C@H]6C=C(C)C)C(C)CCC3C(C)C1` (stereo not given in full), the GI50 with ACHN renal, in the assay with PC-3 prostate, in the assay with NCI-H23 lung, with NCI-H226 lung, in the assay with MDA-MB-231 breast and in the assay on 786-0 renal was above 100 µM throughout. Besides, the GI50 in the assay on SN12C renal is above 100 µM; with NCI-H460 lung, above 100 µM; in the assay on OVCAR-3 ovarian it was above 100000 nM. The concentration for total growth inhibition (TGI) in the assay with ACHN renal, in the assay on PC-3 prostate, in the assay on NCI-H23 lung, with NCI-H226 lung, in the assay on MDA-MB-231 breast and in the assay with 786-0 renal was above 100 µM in each case. Further, the TGI with SN12C renal, in the assay on NCI-H460 lung and with OVCAR-3 ovarian was above 100 µM throughout.
On to `C[N+]1=C(/C=C\C=C\c2ccccc2)C(C)(C)c2ccccc21`, for which the GI50 was 5.84 µM in the assay on ACHN renal; 3.54 µM in the assay with PC-3 prostate; 2.83 µM in the assay on NCI-H23 lung; 4.33 µM with NCI-H226 lung; 2.36 µM with MDA-MB-231 breast; 3.19 µM with 786-0 renal. Moreover, the GI50 in the assay on SN12C renal is 0.863 µM; in the assay on HL-60(TB) leukemia, 0.258 µM; in the assay on NCI-H460 lung, 4.44 µM; in the assay on OVCAR-3 ovarian, 1080 nM. Further, the TGI in the assay with ACHN renal came to 18.7 µM; in the assay with PC-3 prostate it was 14.9 µM; in the assay on NCI-H23 lung it was 11.5 µM; in the assay on NCI-H226 lung, 25.5 µM; in the assay on MDA-MB-231 breast it was 7.52 µM; in the assay on 786-0 renal, 10.7 µM. In addition, the total growth inhibition concentration (TGI) with SN12C renal was determined as 12.4 µM; in the assay on HL-60(TB) leukemia, 1.62 µM; with NCI-H460 lung it was 17.2 µM; in the assay with OVCAR-3 ovarian, 2.81 µM.
